Reference: patent publication US12595253B2, “Benzamides of pyrazolylamino-pyrimidinyl derivatives, and compositions and methods thereof” (LYNK PHARMACEUTICALS CO. LTD., priority 2019, dated 2026)

Key:
Type in all cases: biochemical
[1] = biological target: T1, TYK2 (Homo sapiens, UniProt P29597); test: TYK2 microfluidic kinase assay (Caliper EZ Reader II, FAM labeled peptide substrate); details: IC50 TYK2 ([…]) (1 mM ATP), TYK2 […], 1 mM ATP
T1 construct: purchased Carna Biosciences
Method: Compounds were tested against JAK1, JAK2, JAK2V617F and TYK2. Assay Formats: JAK activity was determined in the reaction buffer 50 mM HEPES, 0.01% Brij35, 10 mM MgCl2, 2 mM DTT by a microfluidic assay. The phosphorylation of a FAM labeled peptide substrate was monitored in the Caliper EZ Reader II (Perkin Elmer). The assay condition for each batch of enzyme (Carna Biosciences) was optimized to obtain 10% conversion rate of peptide substrate. The test compounds were dissolved in DMSO to a stock concentration of 10 mM. 3-fold serially diluted compounds with top concentration of 5 μM were pre-incubated with JAK1, JAK2, JAK2V617F or TYK2 at indicated concentrations for 10 min at ambient temperature. The final DMSO concentration of assay mixture was 1%. […] The reaction was stopped by adding 50 mM EDTA. The reaction time for JAK1, JAK2, JAK2V617F and TYK2 was 120 min, 20 min, 30 min and 10 min, respectively. […] And the well without compound but with equivalent DMSO was defined as no inhibition. The percent inhibition was calculated by the following formula. % Inhibition=(Conversionmax−Conversionsample)/(Conversionmax−Conversionmin)*100 • Conversionmax means the conversion rate in the positive well without addition of compound • Conversionmin means the conversion rate in the well without addition of enzyme • Conversionsample means the conversion rate of test compounds The dose-response (percent inhibition) curve was plotted and IC50 values were determined by GraphPad software.

[2] = biological target: T2, JAK2 (Homo sapiens, UniProt O60674); test: JAK2 microfluidic kinase assay (Caliper EZ Reader II, FAM labeled peptide substrate)
T2 construct: purchased Carna Biosciences
Method in brief: (§1)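 Microfluidic mobility-shift kinase assay in 50 mM HEPES, 0.01% Brij35, 10 mM MgCl2, 2 mM DTT. IC50 values come from percent-inhibition curves normalised to uninhibited and enzyme-free controls.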

[3] = biological target: T3, JAK1 (Homo sapiens, UniProt P23458); test: JAK1 microfluidic kinase assay (Caliper EZ Reader II, FAM labeled peptide substrate); details: IC50 JAK1 (5 nM) (1 m MATP), JAK1 5 nM, 1 mM ATP
T3 construct: purchased Carna Biosciences
Method in brief: as §1

[4] = IC50 JAK2 ([…]) (1 mM ATP), 1 mM ATP

T1 sequence (P29597 whole entry): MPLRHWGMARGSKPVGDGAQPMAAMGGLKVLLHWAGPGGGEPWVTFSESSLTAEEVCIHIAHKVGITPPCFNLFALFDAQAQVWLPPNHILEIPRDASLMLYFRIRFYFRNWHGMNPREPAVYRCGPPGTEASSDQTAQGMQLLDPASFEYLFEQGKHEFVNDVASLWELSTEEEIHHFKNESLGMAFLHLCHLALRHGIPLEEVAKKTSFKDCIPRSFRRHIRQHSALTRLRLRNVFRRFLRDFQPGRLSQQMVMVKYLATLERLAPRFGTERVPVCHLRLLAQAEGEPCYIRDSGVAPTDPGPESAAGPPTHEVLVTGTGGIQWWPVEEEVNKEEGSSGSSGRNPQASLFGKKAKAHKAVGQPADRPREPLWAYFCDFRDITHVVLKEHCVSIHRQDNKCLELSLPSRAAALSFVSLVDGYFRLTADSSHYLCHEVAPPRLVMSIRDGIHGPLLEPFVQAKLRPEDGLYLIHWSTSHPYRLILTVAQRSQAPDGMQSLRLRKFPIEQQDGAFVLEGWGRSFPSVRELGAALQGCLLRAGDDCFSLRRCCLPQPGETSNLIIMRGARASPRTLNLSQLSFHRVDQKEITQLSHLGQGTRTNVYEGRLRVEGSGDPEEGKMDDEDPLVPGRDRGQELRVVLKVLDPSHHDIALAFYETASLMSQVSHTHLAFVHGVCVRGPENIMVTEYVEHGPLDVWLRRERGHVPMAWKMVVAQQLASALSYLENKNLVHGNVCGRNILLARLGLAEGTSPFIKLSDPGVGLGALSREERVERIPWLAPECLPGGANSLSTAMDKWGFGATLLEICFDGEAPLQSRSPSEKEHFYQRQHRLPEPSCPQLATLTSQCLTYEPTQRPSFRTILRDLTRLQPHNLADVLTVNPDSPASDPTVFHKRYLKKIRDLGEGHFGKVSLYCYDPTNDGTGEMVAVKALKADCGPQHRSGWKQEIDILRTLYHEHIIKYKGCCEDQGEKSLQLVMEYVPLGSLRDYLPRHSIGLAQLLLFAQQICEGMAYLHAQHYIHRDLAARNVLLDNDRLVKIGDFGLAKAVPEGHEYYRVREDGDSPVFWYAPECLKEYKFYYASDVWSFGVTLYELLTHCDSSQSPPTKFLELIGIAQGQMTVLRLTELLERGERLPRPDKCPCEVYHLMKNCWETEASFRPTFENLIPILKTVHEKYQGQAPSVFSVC
T3 sequence (P23458 whole entry): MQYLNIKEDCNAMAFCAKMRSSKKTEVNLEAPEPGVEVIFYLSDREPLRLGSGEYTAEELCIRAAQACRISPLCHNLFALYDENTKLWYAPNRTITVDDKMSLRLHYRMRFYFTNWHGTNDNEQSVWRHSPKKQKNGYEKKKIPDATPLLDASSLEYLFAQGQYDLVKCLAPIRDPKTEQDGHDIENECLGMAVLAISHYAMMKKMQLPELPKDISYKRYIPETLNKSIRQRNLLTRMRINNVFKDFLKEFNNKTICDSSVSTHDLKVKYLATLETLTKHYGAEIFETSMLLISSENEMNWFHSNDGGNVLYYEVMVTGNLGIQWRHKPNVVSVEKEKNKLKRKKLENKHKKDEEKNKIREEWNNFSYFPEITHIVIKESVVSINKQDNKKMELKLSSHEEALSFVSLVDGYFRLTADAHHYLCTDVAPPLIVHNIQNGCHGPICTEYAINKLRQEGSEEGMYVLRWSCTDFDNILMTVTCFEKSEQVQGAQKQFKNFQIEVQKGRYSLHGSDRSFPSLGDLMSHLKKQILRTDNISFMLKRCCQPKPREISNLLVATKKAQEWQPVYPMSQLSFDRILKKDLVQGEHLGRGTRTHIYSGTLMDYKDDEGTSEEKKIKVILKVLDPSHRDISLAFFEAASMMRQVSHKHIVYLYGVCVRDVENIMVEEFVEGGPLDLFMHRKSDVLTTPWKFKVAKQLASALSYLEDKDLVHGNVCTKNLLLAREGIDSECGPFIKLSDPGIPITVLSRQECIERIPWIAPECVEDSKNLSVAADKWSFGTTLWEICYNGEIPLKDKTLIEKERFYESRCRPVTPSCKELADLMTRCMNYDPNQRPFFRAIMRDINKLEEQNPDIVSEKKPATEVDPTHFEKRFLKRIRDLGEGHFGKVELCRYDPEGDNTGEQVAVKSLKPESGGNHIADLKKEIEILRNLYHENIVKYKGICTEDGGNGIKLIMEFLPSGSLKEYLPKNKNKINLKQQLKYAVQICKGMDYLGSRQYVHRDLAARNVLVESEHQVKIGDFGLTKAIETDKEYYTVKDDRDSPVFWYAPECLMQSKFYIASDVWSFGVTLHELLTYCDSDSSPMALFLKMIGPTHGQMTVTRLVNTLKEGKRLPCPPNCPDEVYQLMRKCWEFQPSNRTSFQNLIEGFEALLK
T2 sequence (O60674 whole entry): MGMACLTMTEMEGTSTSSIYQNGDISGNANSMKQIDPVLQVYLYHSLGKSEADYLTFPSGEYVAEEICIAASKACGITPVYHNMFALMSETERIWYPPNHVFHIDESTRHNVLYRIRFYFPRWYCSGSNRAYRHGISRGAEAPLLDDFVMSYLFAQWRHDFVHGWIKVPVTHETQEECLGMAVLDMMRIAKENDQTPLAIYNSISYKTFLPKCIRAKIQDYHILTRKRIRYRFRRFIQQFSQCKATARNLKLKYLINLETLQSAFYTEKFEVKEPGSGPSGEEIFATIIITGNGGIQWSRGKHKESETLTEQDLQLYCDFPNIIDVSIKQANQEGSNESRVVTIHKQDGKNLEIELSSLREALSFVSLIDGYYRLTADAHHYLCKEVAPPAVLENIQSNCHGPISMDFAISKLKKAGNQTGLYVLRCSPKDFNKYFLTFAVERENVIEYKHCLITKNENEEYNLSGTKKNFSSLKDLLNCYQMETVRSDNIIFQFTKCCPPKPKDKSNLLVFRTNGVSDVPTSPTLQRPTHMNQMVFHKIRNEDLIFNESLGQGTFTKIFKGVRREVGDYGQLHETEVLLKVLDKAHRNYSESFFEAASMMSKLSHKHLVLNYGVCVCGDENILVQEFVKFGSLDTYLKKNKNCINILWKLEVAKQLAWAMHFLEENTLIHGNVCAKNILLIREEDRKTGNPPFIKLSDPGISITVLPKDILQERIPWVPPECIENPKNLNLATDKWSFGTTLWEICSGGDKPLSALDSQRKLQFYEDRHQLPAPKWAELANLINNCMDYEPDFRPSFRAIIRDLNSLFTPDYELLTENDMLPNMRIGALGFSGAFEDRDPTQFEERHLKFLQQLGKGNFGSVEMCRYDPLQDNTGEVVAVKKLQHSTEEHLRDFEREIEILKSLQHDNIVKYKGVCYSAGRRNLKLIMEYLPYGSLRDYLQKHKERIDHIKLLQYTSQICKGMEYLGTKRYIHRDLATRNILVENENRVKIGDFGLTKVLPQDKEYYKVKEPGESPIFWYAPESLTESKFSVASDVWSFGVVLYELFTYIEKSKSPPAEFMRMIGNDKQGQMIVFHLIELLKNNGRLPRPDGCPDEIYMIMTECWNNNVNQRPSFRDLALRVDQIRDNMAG

Row | Compound | IC50 [1] [nM] | IC50 [2, 4] [nM] | IC50 [3] [nM] | IC50 ([2]; IC50 JAK2 ([…]) (Km ATP), Km ATP) [nM]
1 | Cc1cnc(Nc2cnn(CCC#N)c2)nc1-c1ccc(C(=O)N[C@@H](C)C#N)cc1 [Example 216, (S)—N-(1-cyanoethyl)-4-(2-((1-(2-cyanoethyl)-1H-pyrazol-4-yl)amino)-5-methylpyrimidin-4-yl)benzamide] | 74 | 40.9 | 4.88 | –
2 | N#CCNC(=O)c1ccc(-c2nc(Nc3cnn(C4CCN(C(=O)CO)CC4)c3)ncc2Cl)cc1 [Example 218, 4-(5-Chloro-2-((1-(1-(2-hydroxyacetyl)piperidin-4-yl)-1H-pyrazol-4-yl)amino)pyrimidin-4-yl)-N-(cyanomethyl)benzamide] | 58 | < 0.25 | 13 | –
3 | C[C@@H](C#N)NC(=O)c1ccc(-c2nc(Nc3cnn(C4CCN(C(=O)CO)CC4)c3)ncc2Cl)cc1 [Example 214, (S)-4-(5-chloro-2-((1-(1-(2-hydroxyacetyl)piperidin-4-yl)-1H-pyrazol-4-yl)amino)pyrimidin-4-yl)-N-(1-cyanoethyl)benzamide] | 59.6 | < 0.25 | 15.6 | –
4 | Cc1cnc(Nc2cnn([C@H]3C[C@@H](C)N[C@@H](C)C3)c2)nc1-c1ccc(C(=O)N[C@@H](C)C#N)cc1 [Example 232, N—((S)-1-cyanoethyl)-4-(2-((1-((2S,4r,6R)-2,6-dimethylpiperidin-4-yl)-1H-pyrazol-4-yl)amino)-5-methylpyrimidin-4-yl)benzamide] | 2.97 | 0.43 | 9.9 | –
5 | Cc1cnc(Nc2cnn(C3CCN(C(=O)CO)CC3)c2)nc1-c1ccc(C(=O)NCC#N)cc1 [Example 207, N-(cyanomethyl)-4-(2-((1-(1-(2-hydroxyacetyl)piperidin-4-yl)-1H-pyrazol-4-yl)amino)-5-methylpyrimidin-4-yl)benzamide] | 50.6 | < 0.25 | 15.2 | –
6 | Cc1cnc(Nc2cnn(C3CCNCC3)c2)nc1-c1ccc(C(=O)NCC#N)cc1 [Example 212, N-(cyanomethyl)-4-(5-methyl-2-((1-(piperidin-4-yl)-1H-pyrazol-4-yl)amino)pyrimidin-4-yl)benzamide] | 76.4 | 0.47 | 7.81 | –
7 | Cc1cnc(Nc2ccn(C)n2)nc1-c1ccc(C(=O)NCC#N)cc1 [Example 107, N-(Cyanomethyl)-4-(5-methyl-2-((1-methyl-1H-pyrazol-3-yl)amino)pyrimidin-4-yl)benzamide] | > 5000 | 1150 | 2310 | 28.1
8 | Cc1cnc(Nc2cnn([C@@H]3C[C@@H](C)N[C@@H](C)C3)c2)nc1-c1ccc(C(=O)N[C@@H](C)C#N)cc1 [Example 231, N—((S)-1-cyanoethyl)-4-(2-((1-((2S,4s,6R)-2,6-dimethylpiperidin-4-yl)-1H-pyrazol-4-yl)amino)-5-methylpyrimidin-4-yl)benzamide] | 245 | 1.63 | 80.6 | –
9 | CC[C@@H](C#N)NC(=O)c1ccc(-c2nc(Nc3cnn(C(C)C(F)(F)F)c3)ncc2C)cc1 (single isomer, unassigned) [Example 226, N—((S)-1-Cyanopropyl)-4-(5-methyl-2-((1-((S*)-1,1,1-trifluoropropan-2-yl)-1H-pyrazol-4-yl)amino)pyrimidin-4-yl)benzamide] | 57.3 | 32.2 | 4.24 | –
10 | C[C@@H](C#N)NC(=O)c1ccc(-c2nc(Nc3cnn(CCO)c3)ncc2Cl)cc1 [Example 186, (S)-4-(5-chloro-2-((1-(2-hydroxyethyl)-1H-pyrazol-4-yl)amino)pyrimidin-4-yl)-N-(1-cyanoethyl)benzamide] | 39.7 | 25.2 | 2.47 | –
11 | Cc1cnc(Nc2cnn(C3CCNCC3)c2)nc1-c1ccc(C(=O)N[C@H](C#N)C2CC2)cc1 [Example 156, (S)—N-(cyano(cyclopropyl)methyl)-4-(5-methyl-2-((1-(piperidin-4-yl)-1H-pyrazol-4-yl)amino)pyrimidin-4-yl)benzamide] | 3.15 | 0.79 | 2.93 | –
12 | Cc1cnc(Nc2cnn(C3CC3)c2)nc1-c1ccc(C(=O)N(C)CC#N)cc1 [Example 108, N-(cyanomethyl)-4-(2-((1-cyclopropyl-1H-pyrazol-4-yl)amino)-5-methylpyrimidin-4-yl)-N-methylbenzamide] | 1150 | 461 | 628 | –
13 | CC[C@@H](C#N)NC(=O)c1ccc(-c2nc(Nc3cnn(CCC#N)c3)ncc2Cl)cc1 [Example 190, (S)-4-(5-chloro-2-((1-(2-cyanoethyl)-1H-pyrazol-4-yl)amino)pyrimidin-4-yl)-N-(1-cyanopropyl)benzamide] | 45 | 22.1 | 3.83 | –
14 | C[C@@H](C#N)NC(=O)c1ccc(-c2nc(Nc3cn[nH]c3)ncc2Cl)cc1 [Example 188, (S)-4-(2-((1H-pyrazol-4-yl)amino)-5-chloropyrimidin-4-yl)-N-(1-cyanoethyl)benzamide] | 20.4 | 18.3 | 2.9 | –
15 | N#CCNC(=O)c1ccc(-c2nc(Nc3cnn(CC#N)c3)ncc2Cl)cc1 [Example 41, 4-(5-Chloro-2-((1-(cyanomethyl)-1H-pyrazol-4-yl)amino)pyrimidin-4-yl)-N-(cyanomethyl)benzamide] | 71.2 | 31.8 | 6.45 | –
16 | CC[C@@H](C#N)NC(=O)c1ccc(-c2nc(Nc3cnn(C(C)C(F)(F)F)c3)ncc2C)cc1 (single isomer, unassigned) [Example 225, N—((S)-1-Cyanopropyl)-4-(5-methyl-2-((1-((R*)-1,1,1-trifluoropropan-2-yl)-1H-pyrazol-4-yl)amino)pyrimidin-4-yl)benzamide] | 66.9 | 42.6 | 8.95 | –

Next, values leading:

Row | IC50 [1] [nM] | IC50 [2, 4] [nM] | IC50 [3] [nM] | IC50 ([2]; IC50 JAK2 ([…]) (Km ATP), Km ATP) [nM] | Compound
17 | 58.1 | 0.66 | 20.5 | – | CC[C@@H](C#N)NC(=O)c1ccc(-c2nc(Nc3cnn(C4CCCN(C)C4)c3)ncc2C)cc1 (stereo partly drawn) [Example 211, N—((S)-1-cyanopropyl)-4-(5-methyl-2-((1-(1-methylpiperidin-3-yl)-1H-pyrazol-4-yl)amino)pyrimidin-4-yl)benzamide]
18 | 88.2 | 2.39 | 11.4 | – | CC[C@@H](C#N)NC(=O)c1ccc(-c2nc(Nc3cnn(C4CCCNC4)c3)ncc2C)cc1 (stereo partly drawn) [Example 210, N—((S)-1-cyanopropyl)-4-(5-methyl-2-((1-(piperidin-3-yl)-1H-pyrazol-4-yl)amino)pyrimidin-4-yl)benzamide]
19 | 0.88 | 0.78 | 1.84 | – | CC[C@@H](C#N)NC(=O)c1ccc(-c2nc(Nc3cnn(C4CCNCC4)c3)ncc2C)cc1 [Example 171, (S)—N-(1-Cyanopropyl)-4-(5-methyl-2-((1-(piperidin-4-yl)-1H-pyrazol-4-yl)amino)pyrimidin-4-yl)benzamide]
20 | 9.11 | < 0.25 | 14.3 | – | Cc1cnc(Nc2cnn(C3CCC(O)CC3)c2)nc1-c1ccc(C(=O)N[C@@H](C)C#N)cc1 (stereo partly drawn) [Example 209, (S)—N-(1-cyanoethyl)-4-(2-((1-(4-hydroxycyclohexyl)-1H-pyrazol-4-yl)amino)-5-methylpyrimidin-4-yl)benzamide]
21 | < 0.25 | 0.43 | 6.03 | – | CC[C@@H](C#N)NC(=O)c1ccc(-c2nc(Nc3cnn(C4CC(C)(C)OC(C)(C)C4)c3)ncc2C)cc1 [Example 179, (S)—N-(1-cyanopropyl)-4-(5-methyl-2-((1-(2,2,6,6-tetramethyltetrahydro-2H-pyran-4-yl)-1H-pyrazol-4-yl)amino)pyrimidin-4-yl)benzamide]
22 | 1.04 | 0.78 | 6.66 | – | Cc1cnc(Nc2cnn(C3CCNCC3)c2)nc1-c1ccc(C(=O)N[C@@H](C)C#N)cc1 [Example 170, (S)—N-(1-Cyanoethyl)-4-(5-methyl-2-((1-(piperidin-4-yl)-1H-pyrazol-4-yl)amino)pyrimidin-4-yl)benzamide]
23 | 40.9 | 39.8 | 2.71 | – | CC[C@@H](C#N)NC(=O)c1ccc(-c2nc(Nc3cnn(CCC#N)c3)ncc2C)cc1 [Example 217, (S)-4-(2-((1-(2-cyanoethyl)-1H-pyrazol-4-yl)amino)-5-methylpyrimidin-4-yl)-N-(1-cyanopropyl)benzamide]
24 | 1.1 | 0.85 | 1.35 | – | CCC[C@@H](C#N)NC(=O)c1ccc(-c2nc(Nc3cnn(C4CCN(C)CC4)c3)ncc2C)cc1 [Example 176, (S)—N-(1-cyanobutyl)-4-(5-methyl-2-((1-(1-methylpiperidin-4-yl)-1H-pyrazol-4-yl)amino)pyrimidin-4-yl)benzamide]
